Measured values reported in ChEMBL document CHEMBL4000164, “(+)-and (-)-Phenazocine enantiomers: Evaluation of their dual opioid agonist/σ1 antagonist properties and antinociceptive effects” (Eur J Med Chem, 2017).
The source made the active and inactive calls. No cut-off for these calls is given here.

Key:
[1] = molecular target: T1, Kappa-type opioid receptor (Cavia porcellus, UniProt P41144); test: Displacement of [3H]-Ethylketazocine from kappa opioid receptor in guinea pig brain membranes after 40 mins; assay type: cell membranes, Membrane
[2] = Displacement of [3H]-[D-Ala2,D-Leu5]enkephalin from delta opioid receptor in guinea pig brain membranes after 40 mins; assay type: cell membranes, Cavia porcellus, Membrane
[3] = molecular target: Mu-type opioid receptor (Cavia porcellus, UniProt P97266); test: Displacement of [3H]-[D-Ala2,MePhe4Gly-ol5]enkephalin from mu opioid receptor in guinea pig brain membranes after 40 mins; assay type: cell membranes, Membrane
[4] = molecular target: Sigma non-opioid intracellular receptor 1 (Mus musculus, UniProt O55242); test: Displacement of [3H]-(+)-pentazocin from sigma1 receptor in mouse brain P2 membranes after 240 mins by liquid scintillation counting method; assay type: cell membranes
[5] = tested on: Mus musculus; test: Antinociceptive activity in CD-1 mouse mechanical stimulus-induced nociception model assessed as struggle response latency at 0.125 to 0.5 mg/kg, sc administered 30 mins prior to test by paw pressure test; assay type: functional, organism-based
[6] = tested on: Mus musculus; test: Antinociceptive activity in CD-1 mouse mechanical stimulus-induced nociception model assessed as struggle response latency time at 0.5 mg/kg, sc administered 30 mins prior to test in presence of centrally penetrant opioid antagonist Nx by paw pressure test; assay type: functional, organism-based
[7] = molecular target: Mu-type opioid receptor (Rattus norvegicus, UniProt P33535); test: Displacement of [3H] DAMGO from mu opioid receptor in Sprague-Dawley rat whole brain membranes after 2.5 hrs by liquid scintillation method; parameters: species or system Membrane
[8] = tested on: Mus musculus; test: Antinociceptive activity in CD-1 mouse mechanical stimulus-induced nociception model assessed as struggle response latency at 0.25 mg/kg, sc administered 30 mins prior to test in presence of centrally penetrant opioid antagonist Nx by paw pressure test; assay type: functional, organism-based
[9] = tested on: Mus musculus; test: Antinociceptive activity in CD-1 mouse mechanical stimulus-induced nociception model assessed as struggle response latency time at 0.5 mg/kg, sc administered 30 mins prior to test in presence of sigma1 receptor agonist PRE-084 by paw pressure test; assay type: functional, organism-based
[10] = tested on: Mus musculus; test: Antinociceptive activity in CD-1 mouse mechanical stimulus-induced nociception model assessed as struggle response latency time at 0.5 mg/kg, sc administered 30 mins prior to test in presence of peripherally restricted opioid antagonist Nx-M by paw pressure test; assay type: functional, organism-based
[11] = tested on: Mus musculus; test: Antinociceptive activity in CD-1 mouse mechanical stimulus-induced nociception model assessed as struggle response latency at 0.25 mg/kg, sc administered 30 mins prior to test in presence of peripherally restricted opioid antagonist Nx-M by paw pressure test; assay type: functional, organism-based
[12] = tested on: Mus musculus; test: Antinociceptive activity in CD-1 mouse mechanical stimulus-induced nociception model assessed as struggle response latency at 0.25 mg/kg, sc administered 30 mins prior to test in presence of sigma1 receptor agonist PRE-084 by paw pressure test; assay type: functional, organism-based
[13] = tested on: Mus musculus; test: Antinociceptive activity in CD-1 mouse mechanical stimulus-induced nociception model assessed as struggle response latency time at 0.5 mg/kg, sc administered 30 mins prior to test by paw pressure test; assay type: functional
[14] = molecular target: Delta-type opioid receptor (Homo sapiens, UniProt P41143); test: Binding affinity to delta opioid receptor (unknown origin)
[15] = molecular target: Kappa-type opioid receptor (Homo sapiens, UniProt P41145); test: Binding affinity to kappa opioid receptor (unknown origin)
[16] = molecular target: Delta-type opioid receptor (Rattus norvegicus, UniProt P33533); test: Displacement of [3H]DPDPE from delta opioid receptor in Sprague-Dawley rat brain membranes by liquid scintillation counter method; assay type: cell membranes, Membrane
[17] = tested on: Mus musculus; test: Antinociceptive activity in CD-1 mouse mechanical stimulus-induced nociception model assessed as struggle response latency at 4 mg/kg, sc administered 30 mins prior to test in presence of peripherally restricted opioid antagonist Nx-M by paw pressure test; assay type: functional, organism-based
[18] = tested on: Mus musculus; test: Antinociceptive activity in CD-1 mouse mechanical stimulus-induced nociception model assessed as struggle response latency at 4 mg/kg, sc administered 30 mins prior to test in presence of sigma1 receptor agonist PRE-084 by paw pressure test; assay type: functional, organism-based
[19] = tested on: Mus musculus; test: Antinociceptive activity in CD-1 mouse mechanical stimulus-induced nociception model assessed as struggle response latency at 4 mg/kg, sc administered 30 mins prior to test in presence of centrally penetrant opioid antagonist Nx by paw pressure test; assay type: functional, organism-based
[20] = tested on: Mus musculus; test: Antinociceptive activity in CD-1 mouse mechanical stimulus-induced nociception model assessed as struggle response latency at 2 to 8 mg/kg, sc administered 30 mins prior to test by paw pressure test; assay type: functional, organism-based
[21] = molecular target: T1, Kappa-type opioid receptor; test: Displacement of [3H]U69,593 from kappa opioid receptor in guinea pig brain membranes by liquid scintillation counter method; assay type: cell membranes, Membrane
[22] = tested on: Mus musculus; test: Antinociceptive activity in sc dosed CD-1 mouse mechanical stimulus-induced nociception model assessed as struggle response latency administered 30 mins prior to test by paw pressure test; assay type: functional, organism-based
[23] = tested on: Mus musculus; test: Antinociceptive activity in CD-1 mouse mechanical stimulus-induced nociception model assessed as struggle response latency at 8 mg/kg, sc administered 30 mins prior to test in presence of centrally penetrant opioid antagonist Nx by paw pressure test; assay type: functional, organism-based
[24] = tested on: Mus musculus; test: Antinociceptive activity in CD-1 mouse mechanical stimulus-induced nociception model assessed as struggle response latency at 8 mg/kg, sc administered 30 mins prior to test in presence of sigma1 receptor agonist PRE-084 by paw pressure test; assay type: functional, organism-based
[25] = tested on: Mus musculus; test: Analgesic activity in mouse administered subcutaneously by hot plate assay; details: sc
[26] = tested on: Mus musculus; test: Antinociceptive activity in CD-1 mouse mechanical stimulus-induced nociception model assessed as struggle response latency at 8 mg/kg, sc administered 30 mins prior to test in presence of peripherally restricted opioid antagonist Nx-M by paw pressure test; assay type: functional, organism-based

T1 sequence (P41144 whole entry): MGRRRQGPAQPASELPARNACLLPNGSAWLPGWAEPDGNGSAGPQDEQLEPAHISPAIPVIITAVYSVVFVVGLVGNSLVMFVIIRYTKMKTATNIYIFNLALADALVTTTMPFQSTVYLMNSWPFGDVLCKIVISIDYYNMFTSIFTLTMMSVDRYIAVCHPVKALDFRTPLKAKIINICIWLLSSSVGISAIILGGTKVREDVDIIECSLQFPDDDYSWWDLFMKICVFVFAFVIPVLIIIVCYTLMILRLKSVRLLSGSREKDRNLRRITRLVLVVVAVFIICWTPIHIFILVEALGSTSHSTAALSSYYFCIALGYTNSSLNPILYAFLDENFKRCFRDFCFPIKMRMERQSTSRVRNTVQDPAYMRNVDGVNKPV
Chain of Mu-type opioid receptor (Rattus norvegicus, UniProt P33535) (P33535 whole entry): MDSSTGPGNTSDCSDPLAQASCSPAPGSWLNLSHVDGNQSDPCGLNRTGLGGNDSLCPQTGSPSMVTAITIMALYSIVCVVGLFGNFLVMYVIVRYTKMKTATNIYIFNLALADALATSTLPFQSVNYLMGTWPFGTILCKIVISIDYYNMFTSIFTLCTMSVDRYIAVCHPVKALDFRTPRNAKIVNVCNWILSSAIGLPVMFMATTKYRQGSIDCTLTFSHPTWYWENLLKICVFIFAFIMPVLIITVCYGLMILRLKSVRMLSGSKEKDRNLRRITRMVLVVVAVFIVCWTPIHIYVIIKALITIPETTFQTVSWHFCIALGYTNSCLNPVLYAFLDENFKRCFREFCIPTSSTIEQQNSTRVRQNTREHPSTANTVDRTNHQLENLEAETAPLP
Chain of Kappa-type opioid receptor (Homo sapiens, UniProt P41145) (P41145 whole entry): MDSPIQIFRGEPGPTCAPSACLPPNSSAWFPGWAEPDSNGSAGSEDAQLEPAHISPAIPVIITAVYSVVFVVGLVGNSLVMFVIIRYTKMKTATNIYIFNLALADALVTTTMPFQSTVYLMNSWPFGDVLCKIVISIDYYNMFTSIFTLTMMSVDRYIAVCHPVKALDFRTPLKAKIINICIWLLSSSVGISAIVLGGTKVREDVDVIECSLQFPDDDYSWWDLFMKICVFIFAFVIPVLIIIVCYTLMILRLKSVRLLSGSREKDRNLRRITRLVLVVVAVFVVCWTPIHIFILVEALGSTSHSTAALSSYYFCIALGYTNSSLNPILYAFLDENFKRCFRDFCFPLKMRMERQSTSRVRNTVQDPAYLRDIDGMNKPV
Chain of Delta-type opioid receptor (Rattus norvegicus, UniProt P33533) (P33533 whole entry): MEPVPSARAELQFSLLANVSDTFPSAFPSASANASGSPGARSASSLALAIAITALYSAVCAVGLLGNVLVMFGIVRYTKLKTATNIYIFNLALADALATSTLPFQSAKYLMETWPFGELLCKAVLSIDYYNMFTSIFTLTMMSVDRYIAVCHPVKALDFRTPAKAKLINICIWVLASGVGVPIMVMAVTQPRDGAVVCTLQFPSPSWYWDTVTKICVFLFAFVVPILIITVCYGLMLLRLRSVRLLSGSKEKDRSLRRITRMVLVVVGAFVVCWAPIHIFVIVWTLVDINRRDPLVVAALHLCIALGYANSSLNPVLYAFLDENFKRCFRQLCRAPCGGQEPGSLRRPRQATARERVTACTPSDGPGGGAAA
Chain of Sigma non-opioid intracellular receptor 1 (O55242 whole entry): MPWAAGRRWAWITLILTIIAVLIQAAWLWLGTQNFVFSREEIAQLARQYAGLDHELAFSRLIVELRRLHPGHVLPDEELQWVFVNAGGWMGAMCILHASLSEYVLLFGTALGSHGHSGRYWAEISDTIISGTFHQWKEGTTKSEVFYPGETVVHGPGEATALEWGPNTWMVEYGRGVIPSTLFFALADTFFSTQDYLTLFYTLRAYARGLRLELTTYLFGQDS
Chain of Mu-type opioid receptor (Cavia porcellus, UniProt P97266) (P97266 whole entry): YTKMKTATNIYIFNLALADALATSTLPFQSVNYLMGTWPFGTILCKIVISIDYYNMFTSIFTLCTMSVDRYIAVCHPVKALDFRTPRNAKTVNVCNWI
Chain of Delta-type opioid receptor (Homo sapiens, UniProt P41143) (P41143 whole entry): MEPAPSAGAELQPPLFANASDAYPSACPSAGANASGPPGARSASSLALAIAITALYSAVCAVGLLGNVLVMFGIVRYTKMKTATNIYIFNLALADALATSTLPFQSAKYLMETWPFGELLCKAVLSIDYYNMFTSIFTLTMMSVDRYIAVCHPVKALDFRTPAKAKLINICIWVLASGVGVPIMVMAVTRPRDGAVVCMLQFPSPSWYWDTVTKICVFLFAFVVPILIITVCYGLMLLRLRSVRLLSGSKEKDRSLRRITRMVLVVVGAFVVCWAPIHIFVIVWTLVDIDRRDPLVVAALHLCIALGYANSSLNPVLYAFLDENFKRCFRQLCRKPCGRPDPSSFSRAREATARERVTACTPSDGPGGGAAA

C=CC[N+]1(C)CC[C@]23c4c5ccc(O)c4O[C@H]2C(=O)CC[C@@]3(O)[C@H]1C5 (some centres not stated) [NALOXONE METHIODIDE]
Ki [1]: 187 nM | Ki [2]: 291 nM | Ki [3]: 18.2 nM | Ki [4]: > 1000 nM

C[C@H]1[C@H]2Cc3ccc(O)cc3[C@]1(C)CCN2CCc1ccccc1
Activity [5]: Active | Activity [6]: inactive | Ki [7]: 61.7 nM | Activity [8]: inactive | Activity [9]: inactive | Activity [10]: inactive | Activity [11]: inactive | Activity [12]: inactive | Time [13]: 20 s

O=C(OCCN1CCOCC1)C1(c2ccccc2)CCCCC1
Ki [14]: > 4 µM | Ki [15]: > 4 µM

C[C@@H]1[C@@H]2Cc3ccc(O)cc3[C@@]1(C)CCN2CCc1ccccc1
Ki [16]: 123 nM | Ki [7]: 3.9 nM | Activity [17]: inactive | Activity [18]: inactive | Activity [19]: inactive | Activity [20]: Active | Ki [21]: 175 nM

CN1CC[C@]23c4c5ccc(O)c4O[C@H]2[C@@H](O)C=C[C@H]3[C@H]1C5 [MORPHINE]
Activity [22]: Dose-dependent effect | Activity [23]: inactive | Activity [24]: Active | ED50 [25]: 6.7 mg/kg | Activity [26]: Active
